Among the data in BindingDB's records for doi:10.1016/j.ejmech.2021.113607 (Institute of Medical Biology Pas, 2021) are Ki values, retold here.

For this test, the target named is T1, Adenosine receptor A2b (Homo sapiens, UniProt P29275).
T1 sequence (P29275 whole entry): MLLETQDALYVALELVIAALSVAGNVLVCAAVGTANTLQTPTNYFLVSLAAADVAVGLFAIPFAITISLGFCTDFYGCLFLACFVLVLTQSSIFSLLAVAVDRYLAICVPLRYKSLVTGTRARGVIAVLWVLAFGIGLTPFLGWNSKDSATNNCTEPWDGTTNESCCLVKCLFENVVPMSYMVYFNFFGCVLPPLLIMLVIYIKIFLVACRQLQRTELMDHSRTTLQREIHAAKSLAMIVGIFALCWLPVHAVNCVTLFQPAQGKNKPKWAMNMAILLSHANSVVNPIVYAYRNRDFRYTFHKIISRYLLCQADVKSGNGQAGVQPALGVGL
Description: Displacement of [3H]DPCPX from human adenosine A2B receptor expressed in HEK cell membrane incubated for 30 mins by microplate beta scintillation counting based radioligand inhibition assay. Background: Loss of bound radioactivity is the signal in a displacement assay; it reports binding, not function.

On to `CCNC(=O)[C@H]1O[C@@H](n2cnc3c(NCCCCc4ccccc4)ncnc32)[C@H](O)[C@@H]1O`, for which affinity was put at a Ki of 3.33 µM.
